US7820670B2 (Alcon Research, Ltd., priority 2006, dated 2010)
Counter-ions that a name gives are not always drawn. Like-named read-outs stand apart in the source and are kept apart here.

What was measured:
ROCK 2 = target: T1, ROCK 2 (Homo sapiens, UniProt O75116); test: Rho kinase assay (IMAP ROCK-II kit, fluorescence polarization); type: biochemical
T1 construct: purchased Molecular Devices, Sunnyvale, Calif
Description: (§1) The rho kinase assays were performed using a Biomek 2000 Robotic Workstation (Beckman Instruments, Palo Alto, Calif.) in a 96-well plate format. The assay was performed utilizing the IMAP ROCK-I and ROCK-II kits (Molecular Devices, Sunnyvale, Calif.) as follows. […] The substrate, enzyme, and ATP dilutions were made with the reaction buffer provided by the vendor. Test compounds were diluted in 10:10 DMSO-ethanol (vol/vol). For the actual assay, the various components were added into black, clear bottom, 96-well plates (Costar, Corning, N.Y.) in a final volume of 20μl per well. After the enzyme reaction (60 min at 23° C.), 60 μl of the binding solution was added per well and incubated for an additional 30 minutes in the dark at 23° C. Fluorescence polarization of the reaction mixtures was then measured on the Analyst™ HT instrument (Molecular Devices, Sunnyvale, Calif.).

ROCK 1 = ROCK 1 (Homo sapiens, UniProt Q13464); test: Rho kinase assay (IMAP ROCK-I kit, fluorescence polarization)
Sequence of ROCK 1 (Q13464 whole entry, species assumed): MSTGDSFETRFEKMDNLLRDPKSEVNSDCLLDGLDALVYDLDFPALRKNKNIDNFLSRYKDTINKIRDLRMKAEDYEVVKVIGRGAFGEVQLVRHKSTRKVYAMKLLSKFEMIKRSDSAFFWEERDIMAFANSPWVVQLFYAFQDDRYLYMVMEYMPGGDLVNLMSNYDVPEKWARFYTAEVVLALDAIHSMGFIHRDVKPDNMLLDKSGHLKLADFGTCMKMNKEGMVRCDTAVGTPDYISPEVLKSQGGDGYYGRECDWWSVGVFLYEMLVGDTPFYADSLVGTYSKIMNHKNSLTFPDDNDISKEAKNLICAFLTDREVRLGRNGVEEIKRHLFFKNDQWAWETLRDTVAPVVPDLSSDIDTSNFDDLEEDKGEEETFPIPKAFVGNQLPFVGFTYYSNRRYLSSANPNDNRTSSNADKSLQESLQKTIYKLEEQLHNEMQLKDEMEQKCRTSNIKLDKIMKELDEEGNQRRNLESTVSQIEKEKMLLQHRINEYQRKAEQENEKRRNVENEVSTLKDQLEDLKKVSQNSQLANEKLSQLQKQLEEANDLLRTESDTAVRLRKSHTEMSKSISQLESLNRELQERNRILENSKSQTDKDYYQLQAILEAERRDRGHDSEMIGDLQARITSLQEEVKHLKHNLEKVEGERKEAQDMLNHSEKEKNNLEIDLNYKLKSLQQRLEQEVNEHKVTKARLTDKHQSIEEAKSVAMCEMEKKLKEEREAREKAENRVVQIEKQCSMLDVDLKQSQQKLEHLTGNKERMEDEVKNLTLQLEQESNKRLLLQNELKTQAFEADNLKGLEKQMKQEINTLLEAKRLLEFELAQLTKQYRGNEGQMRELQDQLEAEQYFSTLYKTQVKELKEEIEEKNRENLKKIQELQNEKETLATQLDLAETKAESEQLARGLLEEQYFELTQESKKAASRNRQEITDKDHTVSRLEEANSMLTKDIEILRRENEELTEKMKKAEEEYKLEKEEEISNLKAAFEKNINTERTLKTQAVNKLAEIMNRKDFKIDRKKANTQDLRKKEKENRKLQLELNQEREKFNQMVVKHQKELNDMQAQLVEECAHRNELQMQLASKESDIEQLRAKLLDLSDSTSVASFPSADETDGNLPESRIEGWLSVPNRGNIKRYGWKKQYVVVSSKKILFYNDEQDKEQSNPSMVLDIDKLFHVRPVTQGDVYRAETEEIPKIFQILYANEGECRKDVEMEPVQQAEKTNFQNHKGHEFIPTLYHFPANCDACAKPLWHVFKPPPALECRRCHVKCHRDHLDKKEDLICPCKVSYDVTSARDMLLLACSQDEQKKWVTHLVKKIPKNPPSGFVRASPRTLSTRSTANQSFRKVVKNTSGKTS
Description: as §1

[1] = test system: lasered (hypertensive) eyes of conscious cynomolgus monkeys; test: Acute IOP response in lasered (hypertensive) eyes of conscious cynomolgus monkeys; type: in vivo; settings: 30 ug, one 30 μL aliquot topical to right eye
Description: Intraocular pressure (IOP) can be determined with an Alcon Pneumatonometer after light corneal anesthesia with 0.1% proparacaine. Eyes are washed with saline after each measurement. After a baseline IOP measurement, test compound is instilled in one 30 μL aliquot to the right eyes only of nine cynomolgus monkeys. Vehicle is instilled in the right eyes of six additional animals. Subsequent IOP measurements are taken at 1, 3, and 6 hours.

[2] = substrate 200 nM, ATP 10 μM, 60 min at 23° C.

T1 sequence (O75116 whole entry, species assumed): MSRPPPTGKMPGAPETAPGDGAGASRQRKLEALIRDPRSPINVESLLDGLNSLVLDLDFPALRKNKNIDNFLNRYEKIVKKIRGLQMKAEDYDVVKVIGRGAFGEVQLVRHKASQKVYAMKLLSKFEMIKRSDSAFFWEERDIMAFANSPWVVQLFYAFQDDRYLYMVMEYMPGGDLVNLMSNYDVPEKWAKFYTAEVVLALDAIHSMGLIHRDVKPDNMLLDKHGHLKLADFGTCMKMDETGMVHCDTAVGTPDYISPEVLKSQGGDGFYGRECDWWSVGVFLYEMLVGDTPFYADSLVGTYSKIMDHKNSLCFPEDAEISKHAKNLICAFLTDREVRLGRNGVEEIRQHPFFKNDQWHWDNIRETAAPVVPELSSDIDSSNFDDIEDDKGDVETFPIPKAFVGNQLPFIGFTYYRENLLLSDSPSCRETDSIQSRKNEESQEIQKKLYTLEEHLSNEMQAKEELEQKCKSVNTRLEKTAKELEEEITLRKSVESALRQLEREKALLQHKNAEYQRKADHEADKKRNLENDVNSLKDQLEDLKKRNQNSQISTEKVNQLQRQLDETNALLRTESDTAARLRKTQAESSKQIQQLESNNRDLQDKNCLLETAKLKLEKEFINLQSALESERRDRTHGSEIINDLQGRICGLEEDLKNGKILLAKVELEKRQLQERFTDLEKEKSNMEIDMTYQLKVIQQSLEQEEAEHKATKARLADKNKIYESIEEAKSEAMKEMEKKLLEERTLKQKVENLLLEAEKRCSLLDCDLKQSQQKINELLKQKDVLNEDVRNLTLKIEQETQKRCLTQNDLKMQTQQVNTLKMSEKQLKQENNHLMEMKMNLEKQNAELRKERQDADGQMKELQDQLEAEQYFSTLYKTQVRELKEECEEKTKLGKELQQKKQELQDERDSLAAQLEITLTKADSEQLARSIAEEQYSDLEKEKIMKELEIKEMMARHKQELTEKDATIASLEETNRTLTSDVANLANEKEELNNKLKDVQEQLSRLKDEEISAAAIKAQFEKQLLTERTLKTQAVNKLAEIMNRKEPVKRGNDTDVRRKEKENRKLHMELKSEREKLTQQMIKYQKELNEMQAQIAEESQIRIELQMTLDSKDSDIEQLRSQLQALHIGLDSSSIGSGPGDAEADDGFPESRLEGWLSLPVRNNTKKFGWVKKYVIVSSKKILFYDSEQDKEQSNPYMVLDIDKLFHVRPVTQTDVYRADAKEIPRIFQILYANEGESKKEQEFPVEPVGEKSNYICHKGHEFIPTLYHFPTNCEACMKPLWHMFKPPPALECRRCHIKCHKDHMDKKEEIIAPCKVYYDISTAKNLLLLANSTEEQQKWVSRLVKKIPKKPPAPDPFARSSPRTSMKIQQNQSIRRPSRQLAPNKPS

SMILES | IC50 (ROCK 2; [2]) | IC50 (ROCK 1) | also measured
CCCC/C=C/c1cnc2ccc(NCc3cnc(C)cn3)nn12 [Example 44, (E)-3-(Hex-1-enyl)-N-((5-methylpyrazin-2-yl)methyl)imidazo[1,2-b]pyridazin-6-amine] | 34 µM | 22 µM | –
C1=C(c2cnc3ccc(NCc4ccccn4)nn23)CCCC1 [Example 21, 3-Cyclohexenyl-N-(pyridin-2-ylmethyl)imidazo[1,2-b]pyridazin-6-amine hydrochloride] | 200 µM | > 100 µM | –
CCCC/C=C\c1cnc2ccc(NCCCN3CCOCC3)nn12 [Example 27, (Z)-3-(Hex-1-enyl)-N-(3-morpholinopropyl)imidazo[1,2-b]pyridazin-6-amine hydrochloride] | 88 µM | 43 µM | –
OCc1cnc2ccc(NCc3ccccn3)nn12 [Example 25, (6-(Pyridin-2-ylmethylamino)imidazo[1,2-b]pyridazin-3-yl)methanol hydrochloride] | > 100 µM | > 100 µM | –
Cc1n[nH]c2ccc(-c3cnc4ccc(N5CCNCC5)nn34)cc12 [Example 52, 3-(3-Methyl-1H-indazol-5-yl)-6-piperazin-1-yl-imidazo[1,2-b]pyridazine trihydrochloride] | 0.014 µM | 0.027 µM | –
c1n[nH]cc1-c1cnc2ccc(N3CCOCC3)nn12 [Example 3, 4-(3-(1H-Pyrazol-4-yl)imidazo[1,2-b]pyridazin-6-yl)morpholine] | 56 µM | 12 µM | –
c1cc2[nH]ncc2cc1-c1cnc2ccc(N3CCNCC3)nn12 [Example 51, 3-(1H-Indazol-5-yl)-6-piperazin-1-yl-imidazo[1,2-b]pyridazine dihydrochloride] | 0.0035 µM | 0.12 µM | –
CCCC/C=C/c1cnc2ccc(NCCN(CC)CC)nn12 [Example 40, (E)-N^1,N^1-Diethyl-N^2-(3-(hex-1-enyl)imidazo[1,2-b]pyridazin-6-yl)ethane-1,2-diamine hydrochloride] | > 100 µM | > 100 µM | –
Cc1n[nH]c2ccc(-c3cnc4ccc(N5CCCNCC5)nn34)cc12 [Example 55, 3-(3-Methyl-1H-indazol-5-yl)-6-perhydro-1,4-diazepin-1-yl-imidazo[1,2-b]pyridazine trihydrochloride] | 0.011 µM | 0.0088 µM | IOP % Change ([1]; 1 hr after dosing): 1.0%; IOP Change mmHg ([1]; 1 hr after dosing): 1.0 mmHg; IOP % Change ([1]; 3 hrs after dosing): −21.6%; IOP Change mmHg ([1]; 3 hrs after dosing): −8.7 mmHg; IOP % Change ([1]; 6 hrs after dosing): −22.0%; IOP Change mmHg ([1]; 6 hrs after dosing): −8.9 mmHg
C1=C(c2cnc3ccc(NCCCN4CCOCC4)nn23)CCCC1 [Example 20, 3-Cyclohexenyl-N-(3-morpholinopropyl)imidazo[1,2-b]pyridazin-6-amine hydrochloride] | > 100 µM | 55 µM | –
CCCC/C=C/c1cnc2ccc(NCCOC)nn12 [Example 7, (E)-3-(Hex-1-enyl)-N-(2-methoxyethyl)imidazo[1,2-b]pyridazin-6-amine fumarate] | 20 µM | 35 µM | –
c1cncc(-c2cnc3ccc(N4CCCNCC4)nn23)c1 [Example 57, 6-Perhydro-1,4-diazepin-1-yl-3-pyridin-3-yl-imidazo[1,2-b]pyridazine trihydrochloride] | 23 µM | 63 µM | –
NC(=O)c1ccc(-c2cnc3ccc(N4CCCNCC4)nn23)cc1 [Example 58, 4-(6-Perhydro-1,4-diazepin-1-yl-imidazo[1,2-b]pyridazin-3-yl)benzamide dihydrochloride] | – | 56 µM | IC50 (ROCK 2): 16 µM
